The results in this text go back to the supplement of paper PMC11208160.

The nature of the data set: recombinant barcode read abundance after kanamycin selection (control-corrected) (log10(CPM+1)); higher = more efficient recombination; sequences stand for … in AGTGCAGAGAAAATCGGCCAGTTTTCTCTGCCTGCAGTCCGCATGCCGT…AGATTTATGCAGCGGACTGCCTTTCTCCCAAAGTGATAAACCGGACAGTATCATGGACCGGTTTTCCCGGTAATCCGTATTTGCAAGGTTGGTTTCACT; site = the 11-nt target. The method, boiled down: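 Targets were screened in pooled form in E. coli against IS621 bridge RNA target-binding loops. Recombination efficiency is based on barcode counts at recombinant junctions in counts per million, averaged and corrected for the control. Numbers are shown as log10(CPM+1), with duplicate plates on chloramphenicol/ampicillin LB agar (control) or chloramphenicol/ampicillin/kanamycin with 0.1 mM IPTG.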
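Note: IS621 recombinase and bridge RNA in Escherichia coli cells.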

Regarding “CGGCTGTCTTGGGTTCTAACCTGTTGCCT (site CGGCTGTCTAG)”, the “recombinant barcode read abundance (log10)” value amounted to 1.28.
In the case of “CGGCTGTCTTGGGTTCTAACCTGTTGCCT (site GTAGGAACTCA)” it was 0.0275; in that of “CGGCTTCCTTGGGTTCTAACCTGTTGCTT (site CGGCCTACTAA)”, 0.209.
As for “CGGCTTCCTTGGGTTCTAACCTGTTGCTT (site CGGCTTCCTAA)”, the figure is 0.104; as for “CGGGCCTCTTGGGTTCTAACCTGTTGCAC (site CGGGCCTCTGT)”, 3.19; as for “CGGGCCTCTTGGGTTCTAACCTGTTGCAC (site CGGTCCTCTGC)”, 0.209.
Regarding “CGGGCCTCTTGGGTTCTAACCTGTTGCTC (site CGGGCCTCTAA)”, the “recombinant barcode read abundance (log10)” value was 0.752.
As for “CGGGCCTCTTGGGTTCTAACCTGTTGCTC (site CGGGCCTCTCA)”, the figure is 0.0404; as for “CGGGCCTCTTGGGTTCTAACCTGTTGCTC (site CGGGCCTCTGA)”, 1.23; as for “CGGGCCTCTTGGGTTCTAACCTGTTGCTC (site CGGGCCTCTTA)”, 0.0944.
For “CGGTACCCTTGGGTTCTAACCTGTTGCGG (site CAGCACCCTCC)”, the “recombinant barcode read abundance (log10)” value is 0.64.
In the case of “CGGTACCCTTGGGTTCTAACCTGTTGCGG (site CGGTACCCTCC)” it was 3.11.
As for “CGGTCCGCTTGGGTTCTAACCTGTTGCCT (site AGATCCGCTAG)”, the figure is 0.103; as for “CGGTCCGCTTGGGTTCTAACCTGTTGCCT (site CGGTCCGCTAG)”, 1.52.
Turning to “CGGTCGCCTTGGGTTCTAACCTGTTGCAT (site CGGTCGCCTAT)”, the “recombinant barcode read abundance (log10)” value worked out at 0.839.
As for “CGGTCGCCTTGGGTTCTAACCTGTTGCAT (site CGGTTGCCTAC)”, the figure is 0.153; as for “CGTAAATCTTGGGTTCTAACCTGTTGCCT (site CGAAAATCTAG)”, 0.0185.
As for “CGTAAATCTTGGGTTCTAACCTGTTGCCT (site CGCAAATCTAG)”, the figure is 0.0232; as for “CGTAAATCTTGGGTTCTAACCTGTTGCCT (site CGGAAATCTAG)”, 0.15; as for “CGTAAATCTTGGGTTCTAACCTGTTGCCT (site CGTAAATCTAG)”, 0.146.
Regarding “CGTACCTCTTGGGTTCTAACCTGTTGCTA (site CGTACCTCTAA)”, the “recombinant barcode read abundance (log10)” value worked out at 0.124.
As for “CGTACCTCTTGGGTTCTAACCTGTTGCTA (site CGTACCTCTCA)”, the figure is 0.123; as for “CGTACCTCTTGGGTTCTAACCTGTTGCTA (site CGTACCTCTGA)”, 0.0598; as for “CGTACCTCTTGGGTTCTAACCTGTTGCTA (site CGTACCTCTTA)”, 0.166.
Regarding “CGTACCTCTTGGGTTCTAACCTGTTGCTT (site CGTACCTCTAA)”, the “recombinant barcode read abundance (log10)” value came out at 0.579.
As to “CGTACCTCTTGGGTTCTAACCTGTTGCTT (site CGTACCTCTCA)”, the “recombinant barcode read abundance (log10)” value turned out to be 0.125.
As for “CGTACCTCTTGGGTTCTAACCTGTTGCTT (site CGTACCTCTGA)”, the figure is 0.406.
“CGTACCTCTTGGGTTCTAACCTGTTGCTT (site CGTACCTCTTA)”: the “recombinant barcode read abundance (log10)” value turned out to be 0.127.
As for “CGTACTACTTGGGTTCTAACCTGTTGCAC (site CGTACTACTGT)”, the figure is 0.0785; as for “CGTACTACTTGGGTTCTAACCTGTTGCAC (site GGTACTACTAT)”, 0.128; as for “CGTCAACCTTGGGTTCTAACCTGTTGCCT (site CGTCAACCTAG)”, 0.0446.
As for “CGTCAACCTTGGGTTCTAACCTGTTGCCT (site CGTCACCCTAG)”, the figure is 0.117; as for “CGTCAACCTTGGGTTCTAACCTGTTGCCT (site CGTCAGCCTAG)”, 0.177.
As for “CGTCAACCTTGGGTTCTAACCTGTTGCCT (site CGTCATCCTAG)”, the figure is 0.115; as for “CGTCACACTTGGGTTCTAACCTGTTGCCT (site CGACACACTAG)”, 0.013; as for “CGTCACACTTGGGTTCTAACCTGTTGCCT (site CGCCACACTAG)”, 0.107.
As for “CGTCACACTTGGGTTCTAACCTGTTGCCT (site CGGCACACTAG)”, the “recombinant barcode read abundance (log10)” value came to 0.052.
In the case of “CGTCACACTTGGGTTCTAACCTGTTGCCT (site CGTCACACTAG)” it was 0.013; in that of “CGTCCGACTTGGGTTCTAACCTGTTGCAT (site CGTACGACTAT)”, 0.0562.
Regarding “CGTCCGACTTGGGTTCTAACCTGTTGCAT (site CGTCCGACTAT)”, the “recombinant barcode read abundance (log10)” value amounted to 0.113.
In the case of “CGTCCGACTTGGGTTCTAACCTGTTGCAT (site CGTGCGACTAT)” it was 0.0838; in that of “CGTCCGACTTGGGTTCTAACCTGTTGCAT (site CGTTCGACTAT)”, 0; in that of “CGTCGGGCTTGGGTTCTAACCTGTTGCAG (site CATCGGGCTCT)”, 0.367.
As for “CGTCGGGCTTGGGTTCTAACCTGTTGCAG (site CCTCGGGCTCT)”, the figure is 0.107; as for “CGTCGGGCTTGGGTTCTAACCTGTTGCAG (site CGTCGGGCTCT)”, 1.38; as for “CGTCGGGCTTGGGTTCTAACCTGTTGCAG (site CTTCGGGCTCT)”, 0.258.
Regarding “CGTCTACCTTGGGTTCTAACCTGTTGCCT (site AGTCTACCTAG)”, the “recombinant barcode read abundance (log10)” value turned out to be 0.0669.
As for “CGTCTACCTTGGGTTCTAACCTGTTGCCT (site CGTCTACCTAG)”, the figure is 0.333; as for “CGTCTAGCTTGGGTTCTAACCTGTTGCCA (site CGTCTAGCTTG)”, 0.0938.
Regarding “CGTCTAGCTTGGGTTCTAACCTGTTGCCA (site CGTGGAGCTTG)”, the “recombinant barcode read abundance (log10)” value was determined as 0.0343.
On to “CGTCTGCCTTGGGTTCTAACCTGTTGCCT (site AGTCTGCCTAG)”, for which the “recombinant barcode read abundance (log10)” value came out at 0.0222.
As to “CGTCTGCCTTGGGTTCTAACCTGTTGCCT (site CGTCTGCCTAG)”, the “recombinant barcode read abundance (log10)” value stood at 0.0327.
In the case of “CGTCTGCCTTGGGTTCTAACCTGTTGCCT (site GGTCTGCCTAG)” it was 0.0804.
In the case of “CGTCTGCCTTGGGTTCTAACCTGTTGCCT (site TGTCTGCCTAG)” it was 0.193; in that of “CGTGACCCTTGGGTTCTAACCTGTTGCGG (site CGTGACCCTCC)”, 2.34; in that of “CGTGACCCTTGGGTTCTAACCTGTTGCGG (site GTGAGAACTTG)”, 0.072.
Regarding “CGTGCAGCTTGGGTTCTAACCTGTTGCCT (site CGAGCAGCTAG)”, the “recombinant barcode read abundance (log10)” value came out at 0.508.
In the case of “CGTGCAGCTTGGGTTCTAACCTGTTGCCT (site CGCGCAGCTAG)” it was 0.137; in that of “CGTGCAGCTTGGGTTCTAACCTGTTGCCT (site CGGGCAGCTAG)”, 0.0626; in that of “CGTGCAGCTTGGGTTCTAACCTGTTGCCT (site CGTGCAGCTAG)”, 0.323.
Regarding “CGTGCGCCTTGGGTTCTAACCTGTTGCCT (site AAACTAGCTCC)”, the “recombinant barcode read abundance (log10)” value was determined as 0.0967.
For the sequence “CGTGCGCCTTGGGTTCTAACCTGTTGCCT (site CGTGCGCCTAG)”, the “recombinant barcode read abundance (log10)” value is 0.174.
In the case of “CGTGGTCCTTGGGTTCTAACCTGTTGCGT (site CGTGGTCCTAA)” it was 0.615.
For the sequence “CGTGGTCCTTGGGTTCTAACCTGTTGCGT (site CGTGGTCCTAC)”, the “recombinant barcode read abundance (log10)” value came to 2.26.
Regarding “CGTGGTCCTTGGGTTCTAACCTGTTGCGT (site CGTGGTCCTAG)”, the “recombinant barcode read abundance (log10)” value worked out at 0.224.
In the case of “CGTGGTCCTTGGGTTCTAACCTGTTGCGT (site CGTGGTCCTAT)” it was 1.25.
With “CGTGGTCCTTGGGTTCTAACCTGTTGCTT (site CGTGGTCCTAA)”, the “recombinant barcode read abundance (log10)” value was 0.919.
In the case of “CGTGGTCCTTGGGTTCTAACCTGTTGCTT (site CGTGGTCCTAC)” it was 0.409; in that of “CGTGGTCCTTGGGTTCTAACCTGTTGCTT (site CGTGGTCCTAG)”, 0.342; in that of “CGTGGTCCTTGGGTTCTAACCTGTTGCTT (site CGTGGTCCTAT)”, 0.426.
As for “CGTTCCACTTGGGTTCTAACCTGTTGCCT (site CGTTCAACTAG)”, the figure is 0.0139; as for “CGTTCCACTTGGGTTCTAACCTGTTGCCT (site CGTTCCACTAG)”, 0.0687.
In the case of “CGTTCCACTTGGGTTCTAACCTGTTGCCT (site CGTTCGACTAG)” it was 0.279; in that of “CGTTCCACTTGGGTTCTAACCTGTTGCCT (site CGTTCTACTAG)”, 0.
As to “CTAAACCCTTGGGTTCTAACCTGTTGCGT (site CTAAACCCTAC)”, the “recombinant barcode read abundance (log10)” value was found to be 2.85.
As for “CTAAACCCTTGGGTTCTAACCTGTTGCGT (site CTACACCCTTC)”, the figure is 0.0729; as for “CTAAATCCTTGGGTTCTAACCTGTTGCCT (site ATAAATCCTAG)”, 0.111.
